Among the data in patent US8772283B2, “Imidazo-oxazine compound or salt thereof” (Taiho Pharmaceutical Co., Ltd., priority 2011, dated 2014) are IC50 values, retold here.

Assay [1] concerns S6 ribosomal protein (S6RP) Ser240/Ser244 phosphorylation. The assay can be described thus: Phosphorylated S6RP (Ser240/Ser244) inhibitory activity in cultured cell A2780 (Meso Scale Discovery assay). As to conditions: A2780 cells, 3 hours treatment; average±standard deviation of three independent runs. The assay is classed as cell-based. The procedure: (§1) To evaluate the inhibitory activity of the above compounds against AKT activity, AKT Ser 473 phosphorylation and phosphorylation of S6 ribosomal protein (S6RP) (a downstream factor of Akt signal) at Ser240/Ser244, which serve as indices for the activation status of AKT, were measured in extracts of cultured cells which had been treated with the above compounds. For the measurement, assays (manufactured by Meso Scale Discovery) utilizing electrochemiluminescence based on the ELISA principle were used for both AKT Ser473 and S6RP Ser240/Ser244.
(§2) In 10% FBS-containing RPMI1640 medium (Invitrogen), ovarian cancer-derived A2780 cells in the logarithmic growth phase were seeded at 4.5×10^4 cells/150 μL/well into polylysine coated 96-well flat-bottom plates, and cultured for one day in an incubator at 5% CO2, 37° C., and 100% humidity.
(§3) Each compound of the present invention was supplied as a stock solution prepared at a concentration of 10 mM in DMSO. Using this solution, a dilution series was prepared in DMSO solvent at 200-fold of the final concentrations (10, 3, 1, 0.3, 0.1, 0.03, 0.01, 0.003 μM). The day after the cells were seeded, the compound dilution series at a 200-fold concentration was diluted 50-fold in medium for cell culture. To each well of the aforementioned A2780 cell culture plates, 50 μL of the diluted compound dilution series was added. The plates were then placed back in the incubator, and the culture was continued for 3 hours at 5% CO2, 37° C., and 100% humidity.
(§4) Meso Scale Discovery's 96-Well Multi-Spot Phospho-AKT (Ser473) Assay (K151CAA-3) and Phospho (Ser240/244)/Total S6RP Assay (K11139D-2) were used. In advance, a necessary amount of the supplied cell extract buffer was dispensed, and protease inhibitor cocktail and protein phosphatase inhibitor cocktail were added thereto, and kept cold on ice. The culture plates of the cells cultured with the compounds for 3 hours were taken out and the medium was removed. 100 μL of the cell extract buffer kept cold was added per well, followed by extraction by shaking at 300 r.p.m. for 1 hour using a plate shaker while maintaining a temperature of 4° C. Using the obtained extracts at 40 μL/well for the Phospho-AKT (Ser473) Assay and at 15 μL/well for the Phospho(Ser240/244)/Total S6RP Assay, reactions were conducted at 4° C. overnight with shaking at 300 r.p.m. according to the document attached to the kits. The next day, after the wells were washed three times with the supplied wash buffer, 50 μL/well of SULFO-TAG™ sandwich antibody solution was added, and reactions were carried out at room temperature for 1 hour. The wells were washed with the wash buffer three times, and 150 μL of the supplied Read Buffer T was added to each well. The amounts of phosphorylation of AKT and S6RP were measured by a SECTOR Imager 6000 plate reader (manufactured by Meso Scale Discovery) within 30 minutes of the Read Buffer T addition.
(§5) The extraction buffer-only background was subtracted from all of the measurement values, and AKT and S6RP phosphorylation signals in the control cell extract treated with only DMSO were defined as 100%. The compound concentrations and the levels of phosphorylated AKT and S6PR (expressed as a percentage relative to the control) in each concentration were plotted, and IC50 concentration (nM) that achieves 50% inhibition of the control was determined.

Assay [2] concerns AKT Ser473 phosphorylation. The assay is described as follows: Phosphorylated AKT (Ser473) inhibitory activity in cultured cell A2780 (Meso Scale Discovery assay). Particulars: A2780 cells, 3 hours treatment; average±standard deviation of three independent runs. The assay is classed as cell-based. The procedure: as §1, §2, §3, §4, §5
Another assay has as its target human AKT1 (Homo sapiens (Human), UniProt P31749). The assay can be described thus: AKT1 kinase activity inhibition (TR-FRET, biotinylated Crosstide substrate). Type of assay: biochemical. As to conditions: preincubation 120 min at 25° C.; ATP 150 μM; Crosstide 500 nM. In outline:
(§6)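 Middle-T-tagged human AKT1 or AKT2, Sf9-expressed, affinity-purified and PDK1-activated, was preincubated 120 min at 25 °C with compound in 15 mM Tris-HCl pH 7.5, 0.01% Tween-20, 2 mM DTT. Kinase reaction then ran 60 min with 500 nM biotin-Crosstide, 10 mM MgCl2 and 150 μM ATP before EDTA stop. IC50 came from the Eu/APC TR-FRET 665/620 nm ratio.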

The next assay concerns the target human AKT2 (Homo sapiens (Human), UniProt P31751). The assay is described as follows: AKT2 kinase activity inhibition (TR-FRET, biotinylated Crosstide substrate). Type of assay: biochemical. Particulars: preincubation 120 min at 25° C.; ATP 150 μM; Crosstide 500 nM. Summed up:
as §6
Background: Time-resolved FRET reads energy transfer from a long-lived donor to a nearby acceptor.

human AKT2, sequence (P31751 whole entry): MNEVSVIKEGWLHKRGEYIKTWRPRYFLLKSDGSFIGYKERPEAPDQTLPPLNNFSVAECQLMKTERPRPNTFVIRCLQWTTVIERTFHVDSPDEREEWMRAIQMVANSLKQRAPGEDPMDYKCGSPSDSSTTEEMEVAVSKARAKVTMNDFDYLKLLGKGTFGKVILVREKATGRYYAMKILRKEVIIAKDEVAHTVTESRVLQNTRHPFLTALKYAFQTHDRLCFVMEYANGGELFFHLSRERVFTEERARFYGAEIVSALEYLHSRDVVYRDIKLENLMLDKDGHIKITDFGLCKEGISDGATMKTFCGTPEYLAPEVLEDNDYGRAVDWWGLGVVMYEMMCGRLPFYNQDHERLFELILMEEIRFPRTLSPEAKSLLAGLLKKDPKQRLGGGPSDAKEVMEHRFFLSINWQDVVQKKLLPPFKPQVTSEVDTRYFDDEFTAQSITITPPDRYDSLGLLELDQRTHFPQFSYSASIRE
human AKT1, sequence (P31749 whole entry): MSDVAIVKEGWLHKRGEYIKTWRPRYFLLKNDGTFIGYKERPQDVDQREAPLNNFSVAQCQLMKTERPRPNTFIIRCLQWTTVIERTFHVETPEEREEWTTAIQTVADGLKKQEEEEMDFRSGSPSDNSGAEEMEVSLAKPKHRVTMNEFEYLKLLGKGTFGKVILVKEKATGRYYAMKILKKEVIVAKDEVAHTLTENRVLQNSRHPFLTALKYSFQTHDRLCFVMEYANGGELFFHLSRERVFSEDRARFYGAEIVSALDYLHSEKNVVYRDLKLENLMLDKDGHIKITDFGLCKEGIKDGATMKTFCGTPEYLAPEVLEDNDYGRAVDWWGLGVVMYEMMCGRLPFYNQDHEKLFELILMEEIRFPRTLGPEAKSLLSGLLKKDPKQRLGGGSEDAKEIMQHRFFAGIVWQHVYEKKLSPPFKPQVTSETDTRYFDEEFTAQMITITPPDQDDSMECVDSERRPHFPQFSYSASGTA

Take `NC1(c2ccc(-c3nc4n(c3-c3ccccc3)COc3nccnc3-4)cc2)CC(O)(C2CC2)C1` (stereo not drawn) [Example 41, trans-3-amino-1-cyclopropyl-3-(4-(3-phenyl-5H-imidazo[1,2-c]pyrazino[2,3-e][1,3]oxazin-2-yl)phenyl)cyclobutanol]: the IC50 came out at 100 ± 34 nM in assay [1], 70 ± 16 nM in assay [2], 5.4 nM against human AKT1 and 3.3 nM on human AKT2.
For `C[C@]1(O)C[C@@](N)(c2ccc(-c3nc4n(c3-c3ccccc3)COc3ccc(CO)cc3-4)cc2)C1` [Example 44, trans-3-amino-3-(4-(9-(hydroxymethyl)-3-phenyl-5H-benzo[e]imidazo[1,2-c][1,3]oxazin-2-yl)phenyl)-1-methylcyclobutanol], the concentration for half-maximal inhibition (IC50) in assay [1] is 46 ± 17 nM; in assay [2] it was 33 ± 7 nM; against human AKT1 it was 2.2 nM; at human AKT2 it was 0.55 nM.
`C[C@]1(O)C[C@@](N)(c2ccc(-c3nc4n(c3-c3ccccc3)COc3ccc(C#N)cc3-4)cc2)C1` [Example 46, 2-(4-(trans-1-amino-3-hydroxy-3-methylcyclobutyl)phenyl)-3-phenyl-5H-benzo[e]imidazo[1,2-c][1,3]oxazine-9-carbonitrile]: the half-maximal inhibitory concentration (IC50) in assay [1] stood at 53 ± 6 nM; in assay [2], 32 ± 5 nM; on human AKT1, 4.4 nM; against human AKT2, 0.97 nM.
Consider `C[C@]1(O)C[C@@](N)(c2ccc(-c3nc4n(c3-c3ccccc3)COc3ccc(-c5ccn[nH]5)cc3-4)cc2)C1` [Example 48, trans-3-amino-1-methyl-3-(4-(3-phenyl-9-(1H-pyrazol-5-yl)-5H-benzo[e]imidazo[1,2-c][1,3]oxazin-2-yl)phenyl)cyclobutanol], for which the half-maximal inhibitory concentration (IC50) in assay [1] turned out to be 86 ± 27 nM; in assay [2] it was 48 ± 5 nM; against human AKT1, 0.8 nM; against human AKT2, 0.32 nM.
On to `CNC(=O)c1ccc2c(c1)OCn1c-2nc(-c2ccc([C@]3(N)C[C@](C)(O)C3)cc2)c1-c1ccccc1` [Example 56, 2-(4-(trans-1-amino-3-hydroxy-3-methylcyclobutyl)phenyl)-N-methyl-3-phenyl-5H-benzo[e]imidazo[1,2-c][1,3]oxazine-8-carboxamide], for which the concentration for half-maximal inhibition (IC50) is 38 ± 12 nM in assay [1], 25 ± 3 nM in assay [2], 1.8 nM on human AKT1 and 0.49 nM against human AKT2.
In the same order, the values of `CCONC(=O)c1ccc2c(c1)OCn1c-2nc(-c2ccc([C@]3(N)C[C@](C)(O)C3)cc2)c1-c1ccccc1` [Example 59, 2-(4-(trans-1-amino-3-hydroxy-3-methylcyclobutyl)phenyl)-N-ethoxy-3-phenyl-5H-benzo[e]imidazo[1,2-c][1,3]oxazine-8-carboxamide] are 42 ± 14 nM, 26 ± 3 nM, 2.1 nM and 0.53 nM.

By IC50 is commonly meant the concentration that gives 50% inhibition.
